According to ChEMBL document CHEMBL3885881, “DrugMatrix”:

Species: Rattus norvegicus
Assay: DrugMatrix - Regimen: Daily Repeat
Format: toxicity, organism-based, Sprague-Dawley
Design: regimen Daily Repeat, gender Male, age 6-8 weeks
Details: in vivo, po, route oral GAVAGE, vehicle .5 % CMC; for BASOPHIL / EOSINOPHIL / ERYTHROCYTE COUNT / HEMATOCRIT / HEMOGLOBIN / LEUKOCYTE COUNT / LYMPHOCYTE / MEAN CORPUSCULAR HEMOGLOBIN / MEAN CORPUSCULAR HEMOGLOBIN CONCENTRATION / MEAN CORPUSCULAR VOLUME / MONOCYTE / NEUTROPHIL / PLATELET COUNT: tissue Blood; for ALANINE AMINOTRANSFERASE / ALBUMIN / ALKALINE PHOSPHATASE / ASPARTATE AMINOTRANSFERASE / BLOOD UREA NITROGEN / CHLORIDE / CHOLESTEROL / CREATINE PHOSPHOKINASE / CREATININE / GLUCOSE / PHOSPHORUS / POTASSIUM / SODIUM / TOTAL BILIRUBIN / TOTAL PROTEIN: tissue Plasma
[1] = 50 mg/kg, 72 h, dose level Low, time 3 day
[2] = 50 mg/kg, 120 h, dose level Low, time 5 day
[3] = 1200 mg/kg, 72 h, dose level High, time 3 day
[4] = 1200 mg/kg, 120 h, dose level High, time 5 day

CCN1CCC[C@H]1CNC(=O)c1cc(S(N)(=O)=O)ccc1OC [LEVOSULPIRIDE]
BASOPHIL [1]: 0% | EOSINOPHIL [1]: 0.33% | ERYTHROCYTE COUNT [1]: 5.59 x10E6/uL | HEMATOCRIT [1]: 33.77% | HEMOGLOBIN [1]: 13.77 G/DL | LEUKOCYTE COUNT [1]: 14.5 x10E3/uL | LYMPHOCYTE [1]: 87% | MEAN CORPUSCULAR HEMOGLOBIN [1]: 24.6 pg | MEAN CORPUSCULAR HEMOGLOBIN CONCENTRATION [1]: 40.77 G/DL | MEAN CORPUSCULAR VOLUME [1]: 60.4 fL | MONOCYTE [1]: 1.67% | NEUTROPHIL [1]: 11% | PLATELET COUNT [1]: 1162.67 x10E3/uL | ALANINE AMINOTRANSFERASE [1]: 41 u/L | ALBUMIN [1]: 3.7 G/DL | ALKALINE PHOSPHATASE [1]: 441.67 u/L | ASPARTATE AMINOTRANSFERASE [1]: 64 u/L | BLOOD UREA NITROGEN [1]: 13.33 mg/dL | CHLORIDE [1]: 106.33 MEQ/L | CHOLESTEROL [1]: 70.33 mg/dL | CREATINE PHOSPHOKINASE [1]: 137 u/L | CREATININE [1]: 0.5 mg/dL | GLUCOSE [1]: 187.67 mg/dL | PHOSPHORUS [1]: 11.53 mg/dL | POTASSIUM [1]: 6.6 MEQ/L | SODIUM [1]: 150.33 MEQ/L | TOTAL BILIRUBIN [1]: 0.57 mg/dL | TOTAL PROTEIN [1]: 6 G/DL | BASOPHIL [2]: 0% | EOSINOPHIL [2]: 0.33% | ERYTHROCYTE COUNT [2]: 6.32 x10E6/uL | HEMATOCRIT [2]: 37.23% | HEMOGLOBIN [2]: 14.57 G/DL | LEUKOCYTE COUNT [2]: 13.63 x10E3/uL | LYMPHOCYTE [2]: 80.67% | MEAN CORPUSCULAR HEMOGLOBIN [2]: 23.03 pg | MEAN CORPUSCULAR HEMOGLOBIN CONCENTRATION [2]: 39.13 G/DL | MEAN CORPUSCULAR VOLUME [2]: 58.9 fL | MONOCYTE [2]: 2.67% | NEUTROPHIL [2]: 16.33% | PLATELET COUNT [2]: 1180.67 x10E3/uL | ALANINE AMINOTRANSFERASE [2]: 42 u/L | ALBUMIN [2]: 3.7 G/DL | ALKALINE PHOSPHATASE [2]: 336 u/L | ASPARTATE AMINOTRANSFERASE [2]: 62.33 u/L | BLOOD UREA NITROGEN [2]: 13 mg/dL | CHLORIDE [2]: 106 MEQ/L | CHOLESTEROL [2]: 67.67 mg/dL | CREATINE PHOSPHOKINASE [2]: 137.33 u/L | CREATININE [2]: 0.57 mg/dL | GLUCOSE [2]: 188.67 mg/dL | PHOSPHORUS [2]: 10.97 mg/dL | POTASSIUM [2]: 6.83 MEQ/L | SODIUM [2]: 150.67 MEQ/L | TOTAL BILIRUBIN [2]: 0.4 mg/dL | TOTAL PROTEIN [2]: 5.97 G/DL | BASOPHIL [3]: 0% | EOSINOPHIL [3]: 0.5% | ERYTHROCYTE COUNT [3]: 6.49 x10E6/uL | HEMATOCRIT [3]: 38.15% | HEMOGLOBIN [3]: 15.2 G/DL | LEUKOCYTE COUNT [3]: 14.55 x10E3/uL | LYMPHOCYTE [3]: 86% | MEAN CORPUSCULAR HEMOGLOBIN [3]: 23.4 pg | MEAN CORPUSCULAR HEMOGLOBIN CONCENTRATION [3]: 39.85 G/DL | MEAN CORPUSCULAR VOLUME [3]: 58.75 fL | MONOCYTE [3]: 0.5% | NEUTROPHIL [3]: 13% | PLATELET COUNT [3]: 1325.5 x10E3/uL | ALANINE AMINOTRANSFERASE [3]: 42 u/L | ALBUMIN [3]: 4 G/DL | ALKALINE PHOSPHATASE [3]: 363 u/L | ASPARTATE AMINOTRANSFERASE [3]: 58.33 u/L | BLOOD UREA NITROGEN [3]: 16.67 mg/dL | CHLORIDE [3]: 104 MEQ/L | CHOLESTEROL [3]: 80 mg/dL | CREATINE PHOSPHOKINASE [3]: 154.33 u/L | CREATININE [3]: 0.6 mg/dL | GLUCOSE [3]: 176.67 mg/dL | PHOSPHORUS [3]: 12.6 mg/dL | POTASSIUM [3]: 7.23 MEQ/L | SODIUM [3]: 150 MEQ/L | TOTAL BILIRUBIN [3]: 0.67 mg/dL | BASOPHIL [4]: 0% | EOSINOPHIL [4]: 0.5% | ERYTHROCYTE COUNT [4]: 5.88 x10E6/uL | HEMATOCRIT [4]: 35.5% | HEMOGLOBIN [4]: 15 G/DL | LEUKOCYTE COUNT [4]: 12.3 x10E3/uL | LYMPHOCYTE [4]: 85.5% | MEAN CORPUSCULAR HEMOGLOBIN [4]: 25.5 pg | MEAN CORPUSCULAR HEMOGLOBIN CONCENTRATION [4]: 42.4 G/DL | MEAN CORPUSCULAR VOLUME [4]: 60.25 fL | MONOCYTE [4]: 4.5% | NEUTROPHIL [4]: 9.5% | PLATELET COUNT [4]: 1166 x10E3/uL | ALANINE AMINOTRANSFERASE [4]: 43 u/L | ALBUMIN [4]: 3.65 G/DL | ALKALINE PHOSPHATASE [4]: 219.5 u/L | ASPARTATE AMINOTRANSFERASE [4]: 64 u/L | BLOOD UREA NITROGEN [4]: 16 mg/dL | CHLORIDE [4]: 106.5 MEQ/L | CHOLESTEROL [4]: 65.5 mg/dL | CREATINE PHOSPHOKINASE [4]: 164 u/L | CREATININE [4]: 0.6 mg/dL | GLUCOSE [4]: 166.5 mg/dL | PHOSPHORUS [4]: 11.95 mg/dL | POTASSIUM [4]: 6.7 MEQ/L | SODIUM [4]: 151.5 MEQ/L | TOTAL BILIRUBIN [4]: 0.35 mg/dL | TOTAL PROTEIN [4]: 6 G/DL
